# From patent USRE40278E1, “Heterocyclic amines having central nervous system activity” (priority 1993, dated 2008)
# Tests used:
# 5-HT1A-Clone = target: T1, 5-HT1A-Clone (Homo sapiens, UniProt P08908); test: receptor binding assay, 5-HT1A clone (DPAT ligand)
# T1 construct: expressed in transfected cells
# T1 sequence (P08908 1-422): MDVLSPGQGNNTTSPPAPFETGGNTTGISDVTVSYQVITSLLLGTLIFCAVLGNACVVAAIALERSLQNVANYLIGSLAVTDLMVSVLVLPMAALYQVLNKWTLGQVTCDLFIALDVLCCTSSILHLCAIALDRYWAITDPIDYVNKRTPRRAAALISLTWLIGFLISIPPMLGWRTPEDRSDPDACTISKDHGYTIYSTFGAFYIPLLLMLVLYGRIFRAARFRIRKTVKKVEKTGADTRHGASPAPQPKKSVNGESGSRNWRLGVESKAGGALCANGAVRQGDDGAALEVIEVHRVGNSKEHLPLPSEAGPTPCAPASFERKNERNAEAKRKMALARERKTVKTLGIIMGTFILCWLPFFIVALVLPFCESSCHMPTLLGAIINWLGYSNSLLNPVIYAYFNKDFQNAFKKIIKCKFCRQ
# Method: (§1) Compounds of Example 4 (Formula I where R1 and R2 are propyl, Y is hydrogen and X is —OCH3) were evaluated in an receptor binding assay (5HT Ligand) for calculation of IC50 values and Ki (nM) values. Receptor binding assays are well known tests for evaluating compounds for activity as described in “Cloning and Pharmacological Characterization of a Novel Human […] Receptor Sub-Type”, Mol. Pharm., 42 439-44 (1992), herein incorporated by reference.
# 5-HT1DA-Clone = target: T2, 5-HT1DA-Clone (Homo sapiens, UniProt P28221); test: receptor binding assay, 5-HT1DA clone (5HT ligand)
# T2 construct: expressed in transfected cells
# Method: as §1
# 5-HT1DB-Clone = target: T3, 5-HT1DB-Clone (Homo sapiens, UniProt P28222); test: receptor binding assay, 5-HT1DB clone (5HT ligand)
# T3 construct: expressed in transfected cells
# Method: as §1
# [1] = tested on: aggressive behavior of isolated male CF-1 mice; test: isolation-induced aggression assay (latency to attack an intruder mouse); assay type: in vivo; conditions: isolated male CF-1 mice dosed p.o., intruder introduced thirty minutes later, n=6
# Method: Compounds of the subject invention were evaluated in an isolation-induced aggression assay to measure their ability to control or arrest aggressive behavior as measured against a saline “Control”. Male CF-1 mice (Charles River Labs) were housed singly in wire cage drawers for several weeks of isolation and aggression training. After this, the isolated mouse (weighing 30-50 g) initiated an “attack” whenever an intruder mouse was placed into his cage. Intruders were male CF-1 Charles River mice, about the same size as isolated mice and housed in groups of 12 per cage. For drug testing, the isolated mice were dosed orally (p.o.) with drug or 0.25% methylcellulose vehicle. Thirty minutes later, an intruder mouse was introduced and the latency to attack was recorded. Treatment groups (n=6), including a positive control, were tested by an observer blinded to the treatments, and there was an additional non-blinded vehicle group.
# T3 sequence (P28222 whole entry): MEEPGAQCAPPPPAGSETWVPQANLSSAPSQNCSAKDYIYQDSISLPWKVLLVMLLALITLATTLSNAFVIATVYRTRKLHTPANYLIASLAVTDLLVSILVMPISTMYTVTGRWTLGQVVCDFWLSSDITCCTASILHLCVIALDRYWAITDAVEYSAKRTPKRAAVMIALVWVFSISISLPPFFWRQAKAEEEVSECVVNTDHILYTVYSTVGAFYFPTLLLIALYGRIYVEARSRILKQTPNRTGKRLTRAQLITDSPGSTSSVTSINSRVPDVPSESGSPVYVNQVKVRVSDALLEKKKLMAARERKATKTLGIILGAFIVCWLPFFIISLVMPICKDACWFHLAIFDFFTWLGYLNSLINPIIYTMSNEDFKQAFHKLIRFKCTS
# T2 sequence (P28221 whole entry): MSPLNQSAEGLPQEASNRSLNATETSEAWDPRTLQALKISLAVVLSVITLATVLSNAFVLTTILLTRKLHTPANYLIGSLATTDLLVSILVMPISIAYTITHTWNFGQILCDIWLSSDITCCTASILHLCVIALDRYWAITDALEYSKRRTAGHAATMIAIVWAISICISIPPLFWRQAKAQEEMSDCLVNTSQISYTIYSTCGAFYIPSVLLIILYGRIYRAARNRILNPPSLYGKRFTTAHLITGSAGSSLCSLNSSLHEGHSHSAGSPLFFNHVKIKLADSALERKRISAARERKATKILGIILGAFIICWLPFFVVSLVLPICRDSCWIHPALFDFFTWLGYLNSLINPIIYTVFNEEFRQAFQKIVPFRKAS
structure (smiles),measurement,setting,value
CCCN(CCC)[C@H]1Cc2cccc3c2n(c(=O)n3OC)C1 [Ex. 4 S-Enantiomer],Ki,5-HT1A-Clone,904 nM
"CCCN(CCC)[C@@H]1Cc2cccc3c2n(c(=O)n3OC)C1 [Ex. 4 R-Enantiomer, (R)-5-Dipropylamino-1-methoxy-5,6-dihydro-4H-imidazo[4,5,1-ij]quinolin-2(1H)-one]",Ki,5-HT1DA-Clone,38 nM
same,Ki,5-HT1DB-Clone,58 nM
same,Ki,5-HT1A-Clone,97 nM
same,enantiomer that carries the activity (in words),"5-HT1A-Clone; comparison of R- and S-enantiomer, conclusion from the Ki table",the activity resides in the R-enantiomer
CCCN(CCC)C1Cc2cccc3c2n(c(=O)n3OC)C1 (racemic) [Ex. 4 Racemate],Ki,5-HT1DA-Clone,15.2 nM
same,Ki,5-HT1DB-Clone,7.17 nM
same,receptor selectivity (in words),"5-HT1DB-Clone; 5-HT1DB versus 5-HT1DA, conclusion from the Ki table",selective for the 5HT1DB receptor
"CN[C@@H]1Cc2cccc3c2n(c(=O)n3OC)C1 [Example 1, (R)-5-Methylamino-1-methoxy-5,6-dihydro-4H-imidazo[4,5,1-ij]quinolin-2(1H)-one]",latency to attack,[1],600 s
